Source: PubChem BioAssay AID1963978 (Molecular Pharmacology Branch, DTP, NCI, 2024)

System: 616215-338-R-J1-PDC spheroids with HUVEC/MSC, viability
Experiment: Anticancer human tumor 616215-338-R-J1-PDC patient-derived colon adenocarcinoma cell line growth inhibition [PI3K]
Settings: for IC50: curve of first compound; for viability, T/C: stronger effect = lower value
Method in brief: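 Tumor cells were combined with HUVEC and MSCs into spheroids, then dosed with PI3K-inhibitor combinations over half-log ranges capped near clinical Cmax or 10 microM.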

[1] = second compound 0.0316 µM, first compound 0.0316 µM
[2] = second compound 0.0316 µM, first compound 0.1 µM
[3] = second compound 0.1 µM, first compound 0.0316 µM
[4] = second compound 0.1 µM, first compound 0.1 µM
[5] = second compound 0.316 µM, first compound 0.0316 µM
[6] = second compound 0.316 µM, first compound 0.1 µM
[7] = second compound 1 µM, first compound 0.0316 µM
[8] = second compound 1 µM, first compound 0.1 µM
[9] = second compound 3.16 µM, first compound 0.0316 µM
[10] = second compound 3.16 µM, first compound 0.1 µM
[11] = second compound 10 µM, first compound 0.0316 µM
[12] = second compound 10 µM, first compound 0.1 µM
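Note: spheroids exposed to agents for seven days before the viability read.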

Molecule `CC(C)NCC(C(=O)N1CCN(c2ncnc3c2C(C)CC3O)CC1)c1ccc(Cl)cc1` (centres undefined) + Cc1nc(NC(=O)N2CCCC2C(N)=O)sc1-c1ccnc(C(C)(C)C(F)(F)F)c1 has an IC50 (second compound 0.0316 µM) of 8.82 µM, an IC50 (second compound 0.1 µM) of 8.31 µM and an IC50 (second compound 0.316 µM) of 7.19 µM. It also gave an IC50 (second compound 1 µM) of 7.82 µM, an IC50 (second compound 3.16 µM) of 7.42 µM and an IC50 (second compound 10 µM) of 4.35 µM. For the same molecule, the viability, T/C [1] was 97.2%, the viability, T/C [2] was 91.6% and the viability, T/C (second compound 0.0316 µM, first compound 0.316 µM) was 91.8%. It also gave a viability, T/C (second compound 0.0316 µM, first compound 1 µM) of 98.3%, a viability, T/C (second compound 0.0316 µM, first compound 3.16 µM) of 91.8% and a viability, T/C (second compound 0.0316 µM, first compound 10 µM) of 44.9%. It also gave a viability, T/C [3] of 89.5%, a viability, T/C [4] of 87.4% and a viability, T/C (second compound 0.1 µM, first compound 0.316 µM) of 92.8%. The viability, T/C (second compound 0.1 µM, first compound 1 µM) was 105%, the viability, T/C (second compound 0.1 µM, first compound 3.16 µM) was 90.1% and the viability, T/C (second compound 0.1 µM, first compound 10 µM) was 42%. The viability, T/C [5] was 103%, the viability, T/C [6] was 92.9% and the viability, T/C (second compound 0.316 µM, first compound 0.316 µM) was 98.7%. The viability, T/C (second compound 0.316 µM, first compound 1 µM) was 104%, the viability, T/C (second compound 0.316 µM, first compound 3.16 µM) was 70.8% and the viability, T/C (second compound 0.316 µM, first compound 10 µM) was 41.6%. It also gave a viability, T/C [7] of 98.9%, a viability, T/C [8] of 97.6% and a viability, T/C (second compound 1 µM, first compound 0.316 µM) of 95.6%. For the same molecule, the viability, T/C (second compound 1 µM, first compound 1 µM) was 101%, the viability, T/C (second compound 1 µM, first compound 3.16 µM) was 84.9% and the viability, T/C (second compound 1 µM, first compound 10 µM) was 39.8%. For the same molecule, the viability, T/C [9] was 111%, the viability, T/C [10] was 101% and the viability, T/C (second compound 3.16 µM, first compound 0.316 µM) was 102%. It also gave a viability, T/C (second compound 3.16 µM, first compound 1 µM) of 90.4%, a viability, T/C (second compound 3.16 µM, first compound 3.16 µM) of 71.4% and a viability, T/C (second compound 3.16 µM, first compound 10 µM) of 42.2%. For the same molecule, the viability, T/C [11] was 96%, the viability, T/C [12] was 95.3% and the viability, T/C (second compound 10 µM, first compound 0.316 µM) was 91.6%. For the same molecule, the viability, T/C (second compound 10 µM, first compound 1 µM) was 79.2%, the viability, T/C (second compound 10 µM, first compound 3.16 µM) was 57.8% and the viability, T/C (second compound 10 µM, first compound 10 µM) was 30.3%.
For `CC(C)n1nc(-c2ccc3oc(N)nc3c2)c2c(N)ncnc21` + Cc1nc(NC(=O)N2CCCC2C(N)=O)sc1-c1ccnc(C(C)(C)C(F)(F)F)c1, the IC50 (second compound 0.0316 µM) was > 0.1 µM, the IC50 (second compound 0.1 µM) was > 0.1 µM and the IC50 (second compound 0.316 µM) was > 0.1 µM. The IC50 (second compound 1 µM) was > 0.1 µM, the IC50 (second compound 3.16 µM) was > 0.1 µM and the IC50 (second compound 10 µM) was 0.0532 µM. For the same molecule, the viability, T/C (second compound 0.0316 µM, first compound 0.000316 µM) was 100%, the viability, T/C (second compound 0.0316 µM, first compound 0.001 µM) was 88.7% and the viability, T/C (second compound 0.0316 µM, first compound 0.00316 µM) was 93.9%. The viability, T/C (second compound 0.0316 µM, first compound 0.01 µM) was 97.2%, the viability, T/C [1] was 105% and the viability, T/C [2] was 93.2%. For the same molecule, the viability, T/C (second compound 0.1 µM, first compound 0.000316 µM) was 98.5%, the viability, T/C (second compound 0.1 µM, first compound 0.001 µM) was 106% and the viability, T/C (second compound 0.1 µM, first compound 0.00316 µM) was 96.8%. For the same molecule, the viability, T/C (second compound 0.1 µM, first compound 0.01 µM) was 90.8%, the viability, T/C [3] was 114% and the viability, T/C [4] was 87.1%. For the same molecule, the viability, T/C (second compound 0.316 µM, first compound 0.000316 µM) was 91.2%, the viability, T/C (second compound 0.316 µM, first compound 0.001 µM) was 91.2% and the viability, T/C (second compound 0.316 µM, first compound 0.00316 µM) was 91.4%. The viability, T/C (second compound 0.316 µM, first compound 0.01 µM) was 96.2%, the viability, T/C [5] was 111% and the viability, T/C [6] was 82.1%. For the same molecule, the viability, T/C (second compound 1 µM, first compound 0.000316 µM) was 102%, the viability, T/C (second compound 1 µM, first compound 0.001 µM) was 100% and the viability, T/C (second compound 1 µM, first compound 0.00316 µM) was 102%. It also gave a viability, T/C (second compound 1 µM, first compound 0.01 µM) of 99.5%, a viability, T/C [7] of 106% and a viability, T/C [8] of 79.1%. The viability, T/C (second compound 3.16 µM, first compound 0.000316 µM) was 99.7%, the viability, T/C (second compound 3.16 µM, first compound 0.001 µM) was 102% and the viability, T/C (second compound 3.16 µM, first compound 0.00316 µM) was 91%. The viability, T/C (second compound 3.16 µM, first compound 0.01 µM) was 95.4%, the viability, T/C [9] was 83.8% and the viability, T/C [10] was 56.7%. For the same molecule, the viability, T/C (second compound 10 µM, first compound 0.000316 µM) was 94.4%, the viability, T/C (second compound 10 µM, first compound 0.001 µM) was 85.9% and the viability, T/C (second compound 10 µM, first compound 0.00316 µM) was 86.2%. For the same molecule, the viability, T/C (second compound 10 µM, first compound 0.01 µM) was 80.2%, the viability, T/C [11] was 56.7% and the viability, T/C [12] was 41.4%.
